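Growth conditions: 96-well plates. Treatment: test compound, 48 hours, 5 concentrations. Analysis: linear interpolation between bracketing concentrations; unreached endpoints set to highest concentration. Abbreviation: GI50, concentration required for 50% inhibition of growth. The concentration for full growth arrest is given as TGI.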
Tests used:
Experiment in all cases: NCI tumour cell line growth inhibition, 48 h
[1] = system: MOLT-4 leukemia
[2] = system: COLO 205 colon
[3] = system: SR leukemia
[4] = system: SK-MEL-5 melanoma
[5] = system: SNB-75 CNS
[6] = system: KM12 colon
[7] = system: SN12C renal
[8] = system: UACC-62 melanoma
[9] = system: NCI-H226 lung
[10] = system: OVCAR-3 ovarian
[11] = system: SF-268 CNS
[12] = system: HT29 colon
[13] = system: EKVX NSCLC
[14] = system: LOX IMVI melanoma
[15] = system: RXF 393 renal
[16] = system: MDA-MB-231 breast
[17] = system: 786-0 renal
[18] = system: CCRF-CEM leukemia
[19] = system: SK-MEL-28 melanoma
[20] = system: UO-31 renal
[21] = system: MDA-MB-435
[22] = system: MCF7 breast
[23] = system: CAKI-1 renal
[24] = system: TK-10 renal
[25] = system: IGROV1 ovarian
[26] = system: OVCAR-4 ovarian
[27] = system: T-47D breast
[28] = system: NCI-H522 lung
[29] = system: HOP-92 NSCLC
[30] = system: SNB-19 CNS
[31] = system: NCI-H23 lung
[32] = system: DU-145 prostate
[33] = system: M14 melanoma
[34] = system: ACHN renal
[35] = system: SF-539 CNS
[36] = system: HCT-116 colon
[37] = system: SF-295 CNS
[38] = system: PC-3 prostate
[39] = system: OVCAR-8 ovarian
[40] = system: OVCAR-5 ovarian
[41] = system: NCI/ADR-RES ovarian
[42] = system: SK-MEL-2 melanoma
[43] = system: HCC-2998 colon
[44] = system: K-562 leukemia
[45] = system: A498 renal
[46] = system: HCT-15 colon
[47] = system: U251 CNS
[48] = system: NCI-H460 lung
[49] = system: HS 578T breast
[50] = system: MALME-3M melanoma
[51] = system: RPMI-8226 leukemia
[52] = system: SW-620 colon
[53] = system: SK-OV-3 ovarian
[54] = system: UACC-257 melanoma
[55] = system: A549 NSCLC
[56] = system: HOP-62 NSCLC
[57] = system: BT-549 breast
[58] = system: HL-60(TB) leukemia

`COc1cc2c(cc1Nc1nc(Nc3cccc(F)c3C(N)=O)c3cc[nH]c3n1)N(C(=O)CN1CCN(C(C)C)CC1)CC2` gave a GI50 [1] of 4.74 µM, a TGI [1] of 10.7 µM and a GI50 [2] of 0.666 µM. The TGI [2] was 3.65 µM, the GI50 [3] was 1.19 µM and the TGI [3] was 15.2 µM. For the same compound, the GI50 [4] was 1260 nM, the TGI [4] was 2560 nM and the GI50 [5] was 3000 nM. It also gave a TGI [5] of 6.18 µM, a GI50 [6] of 3.82 µM and a TGI [6] of 7.31 µM. The GI50 [7] was 4.66 µM, the TGI [7] was 10.5 µM and the GI50 [8] was 3.9 µM. For the same compound, the TGI [8] was 7.74 µM, the GI50 [9] was 3.41 µM and the TGI [9] was 7.01 µM. For the same compound, the GI50 [10] was 4520 nM, the TGI [10] was 8.69 µM and the GI50 [11] was 3.98 µM. The TGI [11] was 8.34 µM, the GI50 [12] was 685 nM and the TGI [12] was 4.06 µM. For the same compound, the GI50 [13] was 3.08 µM, the TGI [13] was 7.13 µM and the GI50 [14] was 3.49 µM. The TGI [14] was 7.03 µM, the GI50 [15] was 2300 nM and the TGI [15] was 5.77 µM. For the same compound, the GI50 [16] was 3.94 µM, the TGI [16] was 8.22 µM and the GI50 [17] was 3.98 µM. The TGI [17] was 7.53 µM, the GI50 [18] was 5.35 µM and the TGI [18] was 14.2 µM. It also gave a GI50 [19] of 3.7 µM, a TGI [19] of 7.02 µM and a GI50 [20] of 3920 nM. For the same compound, the TGI [20] was 9.74 µM, the GI50 [21] was 3.12 µM and the TGI [21] was 6.98 µM. For the same compound, the GI50 [22] was 683 nM, the TGI [22] was 4.32 µM and the GI50 [23] was 4.94 µM. The TGI [23] was 11.9 µM, the GI50 [24] was 2970 nM and the TGI [24] was 7.55 µM. For the same compound, the GI50 [25] was 4.5 µM, the TGI [25] was 10.2 µM and the GI50 [26] was 3.88 µM. It also gave a TGI [26] of 7.94 µM, a GI50 [27] of 3.23 µM and a TGI [27] of 6.54 µM. For the same compound, the GI50 [28] was 3.89 µM, the TGI [28] was 7.69 µM and the GI50 [29] was 374 nM. For the same compound, the TGI [29] was 3.13 µM, the GI50 [30] was 4.11 µM and the TGI [30] was 8.27 µM. The GI50 [31] was 3.36 µM, the TGI [31] was 7.05 µM and the GI50 [32] was 3.77 µM. It also gave a TGI [32] of 7.28 µM, a GI50 [33] of 3.99 µM and a TGI [33] of 7.54 µM. For the same compound, the GI50 [34] was 4.59 µM, the TGI [34] was 10.2 µM and the GI50 [35] was 3.74 µM. It also gave a TGI [35] of 7.7 µM, a GI50 [36] of 3.39 µM and a TGI [36] of 6.63 µM. For the same compound, the GI50 [37] was 4320 nM, the TGI [37] was 9.26 µM and the GI50 [38] was 5.12 µM. For the same compound, the TGI [38] was 13.5 µM, the GI50 [39] was 4.54 µM and the TGI [39] was 10.2 µM. The GI50 [40] was 2820 nM, the TGI [40] was 7.35 µM and the GI50 [41] was 5.42 µM. It also gave a TGI [41] of 13.5 µM, a GI50 [42] of 3.3 µM and a TGI [42] of 6.95 µM. It also gave a GI50 [43] of 3.08 µM, a TGI [43] of 6.31 µM and a GI50 [44] of 4.67 µM. The TGI [44] was 11 µM, the GI50 [45] was 2430 nM and the TGI [45] was 3680 nM. The GI50 [46] was 4.36 µM, the TGI [46] was 9.33 µM and the GI50 [47] was 3680 nM. For the same compound, the TGI [47] was 7.09 µM, the GI50 [48] was 3.36 µM and the TGI [48] was 7 µM. It also gave a GI50 [49] of 3760 nM, a TGI [49] of 10.3 µM and a GI50 [50] of 3.17 µM. The TGI [50] was 7.06 µM, the GI50 [51] was 4.58 µM and the TGI [51] was 10.9 µM. It also gave a GI50 [52] of 2.81 µM, a TGI [52] of 5.96 µM and a GI50 [53] of 3850 nM. The TGI [53] was 7.26 µM, the GI50 [54] was 2980 nM and the TGI [54] was 6.3 µM. For the same compound, the GI50 [55] was 3.48 µM, the TGI [55] was 7.19 µM and the GI50 [56] was 2.88 µM. It also gave a TGI [56] of 5.92 µM, a GI50 [57] of 3.95 µM and a TGI [57] of 7.54 µM. The GI50 [58] was 1420 nM and the TGI [58] was 5.6 µM.

Compound `O=C(Nc1n[nH]c2nnc(-c3cccnc3)cc12)C1CC1` has a GI50 [1] of 4.88 µM, a TGI [1] of over 25 µM and a GI50 [2] of 7.45 µM. The TGI [2] was over 25 µM, the GI50 [3] was 6.23 µM and the TGI [3] was over 25 µM. For the same compound, the GI50 [4] was 4610 nM, the TGI [4] was over 25000 nM and the GI50 [5] was 141 nM. For the same compound, the TGI [5] was over 25 µM, the GI50 [6] was 5.22 µM and the TGI [6] was over 20.1 µM. For the same compound, the GI50 [7] was over 11.7 µM, the TGI [7] was over 25 µM and the GI50 [8] was 7.37 µM. The TGI [8] was over 25 µM, the GI50 [9] was 2.7 µM and the TGI [9] was over 13.9 µM. It also gave a GI50 [10] of 114 nM, a TGI [10] of over 18.4 µM and a GI50 [11] of over 11.8 µM. The TGI [11] was over 25 µM, the GI50 [12] was 4760 nM and the TGI [12] was over 25 µM. It also gave a GI50 [13] of over 20.9 µM, a TGI [13] of over 25 µM and a GI50 [14] of 6.99 µM. It also gave a TGI [14] of over 25 µM, a GI50 [15] of 428 nM and a TGI [15] of over 17.9 µM. It also gave a TGI [16] of over 25 µM, a GI50 [17] of 3.65 µM and a TGI [17] of over 25 µM. The GI50 [18] was 7.05 µM, the TGI [18] was over 25 µM and the GI50 [19] was over 16.9 µM. The TGI [19] was over 25 µM, the GI50 [20] was 1650 nM and the TGI [20] was over 20.3 µM. It also gave a GI50 [21] of over 11.3 µM, a TGI [21] of over 25 µM and a GI50 [22] of 1070 nM. The TGI [22] was over 25 µM, the GI50 [23] was 3.87 µM and the TGI [23] was over 25 µM. The TGI [24] was over 25 µM, the GI50 [25] was over 11.7 µM and the TGI [25] was over 25 µM. The GI50 [26] was 7.66 µM, the TGI [26] was over 25 µM and the GI50 [27] was over 12.9 µM. It also gave a TGI [27] of over 25 µM, a GI50 [28] of over 5.13 µM and a TGI [28] of over 25 µM. For the same compound, the GI50 [29] was over 25000 nM, the TGI [29] was over 25 µM and the GI50 [30] was over 11.9 µM. It also gave a TGI [30] of over 25 µM, a GI50 [31] of over 15.9 µM and a TGI [31] of over 25 µM. The GI50 [32] was over 13.4 µM, the TGI [32] was over 25 µM and the GI50 [33] was over 16.1 µM. The TGI [33] was over 25 µM, the GI50 [34] was 3.88 µM and the TGI [34] was over 25 µM. It also gave a GI50 [35] of 2.79 µM, a TGI [35] of over 20.8 µM and a GI50 [36] of 4.47 µM. The TGI [36] was over 19.5 µM, the GI50 [37] was 338 nM and the TGI [37] was over 7.49 µM. The GI50 [38] was 6.44 µM, the TGI [38] was over 25 µM and the GI50 [39] was 7.65 µM. The TGI [39] was over 25 µM, the GI50 [40] was over 17800 nM and the TGI [40] was over 25 µM. The GI50 [41] was over 25 µM, the TGI [41] was over 25 µM and the GI50 [42] was 21.8 µM. For the same compound, the TGI [42] was over 25 µM, the GI50 [43] was 8.95 µM and the TGI [43] was over 25 µM. The GI50 [44] was 1.74 µM, the TGI [44] was over 25 µM and the GI50 [45] was 51 nM. It also gave a TGI [45] of 170 nM, a GI50 [46] of over 20.3 µM and a TGI [46] of over 25 µM. It also gave a GI50 [47] of 1060 nM, a TGI [47] of over 25 µM and a GI50 [48] of 8.13 µM. For the same compound, the TGI [48] was over 25 µM, the GI50 [49] was 83.3 nM and the TGI [49] was over 9.38 µM. It also gave a GI50 [50] of over 25 µM, a TGI [50] of over 25 µM and a GI50 [51] of over 25 µM. The TGI [51] was over 25 µM, the GI50 [52] was 8.97 µM and the TGI [52] was over 25 µM. It also gave a GI50 [53] of 621 nM, a TGI [53] of over 25 µM and a GI50 [54] of over 17400 nM. It also gave a TGI [54] of over 25 µM, a GI50 [55] of over 20.7 µM and a TGI [55] of over 25 µM. For the same compound, the GI50 [56] was 10.1 µM, the TGI [56] was over 25 µM and the GI50 [57] was 10.8 µM. It also gave a TGI [57] of over 25 µM, a GI50 [58] of over 13600 nM and a TGI [58] of over 22.6 µM.

— PubChem BioAssay (NCI)
